Results published in US10479784B2, “Substituted pyrazin-2-amines as inhibitors of ATR kinase” (Vertex Pharmaceuticals Incorporated, priority 2008, dated 2019).
Where two headings read alike, the source gives them in different places.

Key:
[1] = test system: HCT116 colorectal cancer cells; assay: Cisplatin Sensitization Assay (96 h MTS cell viability); assay type: cell-based; details: concentration of compound required to reduce the IC50 of Cisplatin alone by at least 3-fold
Description: (§1) Compounds were screened for their ability to sensitize HCT116 colorectal cancer cells to Cisplatin using a 96 h cell viability (MTS) assay. […] Compounds and Cisplatin were then both added simultaneously to the cell media in 2-fold serial dilutions from a top final concentration of 10 μM as a full matrix of concentrations in a final cell volume of 200 μl, and the cells were then incubated at 37° C. in 5% CO2. After 96 h, 40 μl of MTS reagent (Promega G358a) was added to each well and the cells were incubated for 1 h at 37° C. in 5% CO2.

intracellular ATR = intracellular ATR (Homo sapiens (Human), UniProt Q13535); assay: Cellular ATR Inhibition Assay (H2AX phosphorylation in hydroxyurea treated HT29 cells); assay type: cell-based; details: 2 mM hydroxyurea, phosphorylated H2AX-positive nuclei
Description: Compounds can be screened for their ability to inhibit intracellular ATR using an immunofluorescence microscopy assay to detect phosphorylation of the ATR substrate histone H2AX in hydroxyurea treated cells. HT29 cells are plated at 14,000 cells per well in 96-well black imaging plates (BD 353219) in McCoy's 5 A media (Sigma M8403) supplemented with 10% foetal bovine serum (JRH Biosciences 12003), Penicillin/Streptomycin solution diluted 1:100 (Sigma P7539), and 2 mM L-glutamine (Sigma G7513), and allowed to adhere overnight at 37° C. in 5% CO2. Compounds are then added to the cell media from a final concentration of 25 μM in 3-fold serial dilutions and the cells are incubated at 37° C. in 5% CO2. After 15 min, hydroxyurea (Sigma H8627) is added to a final concentration of 2 mM.
After 45 min of treatment with hydroxyurea, the cells are washed in PBS, fixed for 10 min in 4% formaldehyde diluted in PBS (Polysciences Inc 18814), washed in 0.2% Tween-20 in PBS (wash buffer), and permeabilised for 10 min in 0.5% Triton X-100 in PBS, all at room temperature. The cells are then washed once in wash buffer and blocked for 30 min at room temperature in 10% goat serum (Sigma G9023) diluted in wash buffer (block buffer). […]
Cells are imaged for Alexa Fluor 488 and Hoechst intensity using the BD Pathway 855 Bioimager and Attovision software (BD Biosciences, Version 1.6/855) to quantify phosphorylated H2AX Ser139 and DNA staining, respectively. The percentage of phosphorylated H2AX-positive nuclei in a montage of 9 images at 20× magnification is then calculated for each well using BD Image Data Explorer software (BD Biosciences Version 2.2.15). […] The percentage of H2AX positive nuclei is finally plotted against concentration for each compound and IC50s for intracellular ATR inhibition are determined using Prism software(GraphPad Prism version 3.0cx for Macintosh, GraphPad Software, San Diego Calif., USA).

full-length ATR = full-length ATR (Homo sapiens (Human), UniProt Q13535); assay: ATR Inhibition Assay (radioactive-phosphate incorporation); assay type: biochemical
How it was run: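 Ki(app) was derived by non-linear regression of background-corrected initial rates of 33P incorporation into an 800 μM target peptide, read by phosphocellulose filter scintillation counting. Reaction conditions: 5 nM full-length ATR, 10 μM [γ-33P]ATP, pH 7.5 Tris buffer with MgCl2 and DTT, 25 °C, 10-min preincubation, 24 h run.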

[2] = test system: HCT116 colorectal cancer cells; assay: HCT116 cell viability (MTS), compound alone; assay type: cell-based; details: Homo sapiens, HCT-116, 96 h, read-out: HTC116 (MTS) IC50
Description: as §1

[3] = 5 nM full-length ATR, 10 μM ATP, Ki(app), read-out: ATR Inhibition Assay Ki

Chain of intracellular ATR (Q13535 whole entry): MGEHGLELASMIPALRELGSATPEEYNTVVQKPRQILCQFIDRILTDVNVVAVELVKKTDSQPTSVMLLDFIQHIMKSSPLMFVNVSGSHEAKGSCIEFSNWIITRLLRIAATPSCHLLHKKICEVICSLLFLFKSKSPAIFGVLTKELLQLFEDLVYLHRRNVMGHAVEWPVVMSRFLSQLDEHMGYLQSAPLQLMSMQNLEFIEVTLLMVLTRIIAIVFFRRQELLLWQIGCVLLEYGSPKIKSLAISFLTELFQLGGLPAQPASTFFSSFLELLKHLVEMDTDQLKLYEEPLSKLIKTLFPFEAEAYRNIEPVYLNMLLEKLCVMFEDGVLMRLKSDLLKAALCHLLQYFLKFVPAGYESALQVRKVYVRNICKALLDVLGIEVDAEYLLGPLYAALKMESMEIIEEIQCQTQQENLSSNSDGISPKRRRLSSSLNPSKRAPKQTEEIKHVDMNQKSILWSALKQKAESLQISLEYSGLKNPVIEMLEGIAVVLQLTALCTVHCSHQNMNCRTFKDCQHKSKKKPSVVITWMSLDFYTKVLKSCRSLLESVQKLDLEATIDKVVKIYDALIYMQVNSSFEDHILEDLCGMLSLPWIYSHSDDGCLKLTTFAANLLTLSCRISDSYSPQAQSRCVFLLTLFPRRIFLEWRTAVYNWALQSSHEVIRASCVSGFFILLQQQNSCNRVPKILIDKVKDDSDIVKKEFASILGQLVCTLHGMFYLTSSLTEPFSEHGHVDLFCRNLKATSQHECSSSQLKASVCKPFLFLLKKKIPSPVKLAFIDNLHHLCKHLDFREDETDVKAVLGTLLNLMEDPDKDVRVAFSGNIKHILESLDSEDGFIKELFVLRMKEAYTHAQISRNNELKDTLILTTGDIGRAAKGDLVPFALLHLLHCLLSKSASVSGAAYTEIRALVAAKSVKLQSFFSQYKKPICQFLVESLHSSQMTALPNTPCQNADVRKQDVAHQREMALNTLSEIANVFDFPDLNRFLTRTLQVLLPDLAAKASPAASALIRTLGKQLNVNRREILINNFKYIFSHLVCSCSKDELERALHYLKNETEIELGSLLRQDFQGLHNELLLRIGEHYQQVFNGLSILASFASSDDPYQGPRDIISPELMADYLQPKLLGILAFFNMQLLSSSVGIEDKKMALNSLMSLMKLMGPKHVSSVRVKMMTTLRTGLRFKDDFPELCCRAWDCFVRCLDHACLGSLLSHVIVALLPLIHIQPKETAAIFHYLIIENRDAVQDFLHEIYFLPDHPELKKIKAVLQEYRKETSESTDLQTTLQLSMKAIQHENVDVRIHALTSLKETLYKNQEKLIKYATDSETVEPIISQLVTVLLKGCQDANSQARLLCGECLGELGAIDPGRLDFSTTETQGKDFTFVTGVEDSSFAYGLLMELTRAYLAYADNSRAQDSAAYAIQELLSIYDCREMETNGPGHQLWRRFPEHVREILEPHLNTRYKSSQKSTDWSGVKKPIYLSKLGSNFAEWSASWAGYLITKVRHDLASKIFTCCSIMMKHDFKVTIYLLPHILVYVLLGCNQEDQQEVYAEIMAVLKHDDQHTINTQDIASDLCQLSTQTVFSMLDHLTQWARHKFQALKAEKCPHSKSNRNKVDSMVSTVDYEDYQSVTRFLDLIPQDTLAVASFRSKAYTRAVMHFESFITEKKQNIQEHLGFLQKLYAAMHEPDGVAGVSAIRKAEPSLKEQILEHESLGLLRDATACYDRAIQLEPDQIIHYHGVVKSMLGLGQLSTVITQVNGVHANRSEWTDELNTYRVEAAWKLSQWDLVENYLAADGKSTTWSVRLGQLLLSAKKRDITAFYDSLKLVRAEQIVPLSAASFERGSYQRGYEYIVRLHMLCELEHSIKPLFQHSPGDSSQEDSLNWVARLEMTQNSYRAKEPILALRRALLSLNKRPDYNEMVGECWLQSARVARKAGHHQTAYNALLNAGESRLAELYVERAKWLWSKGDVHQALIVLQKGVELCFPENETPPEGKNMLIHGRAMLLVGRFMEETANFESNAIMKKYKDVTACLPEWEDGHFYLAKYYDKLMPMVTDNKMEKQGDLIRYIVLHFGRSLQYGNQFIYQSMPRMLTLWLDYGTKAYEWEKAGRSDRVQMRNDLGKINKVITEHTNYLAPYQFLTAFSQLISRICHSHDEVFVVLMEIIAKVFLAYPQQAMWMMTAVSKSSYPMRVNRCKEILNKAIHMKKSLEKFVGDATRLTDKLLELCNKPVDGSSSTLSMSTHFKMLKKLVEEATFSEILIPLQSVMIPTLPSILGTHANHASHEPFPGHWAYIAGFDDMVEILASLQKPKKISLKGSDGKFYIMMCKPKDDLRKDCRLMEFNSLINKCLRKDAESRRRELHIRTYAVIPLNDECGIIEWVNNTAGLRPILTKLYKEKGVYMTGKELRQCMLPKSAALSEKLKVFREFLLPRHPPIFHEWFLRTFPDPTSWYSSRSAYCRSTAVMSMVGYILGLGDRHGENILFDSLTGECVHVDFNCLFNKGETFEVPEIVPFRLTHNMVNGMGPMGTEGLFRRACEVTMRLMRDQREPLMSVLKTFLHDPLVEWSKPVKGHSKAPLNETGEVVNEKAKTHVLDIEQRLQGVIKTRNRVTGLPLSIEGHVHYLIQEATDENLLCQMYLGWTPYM
Chain of intracellular ATR (Q8WXE1 whole entry partner): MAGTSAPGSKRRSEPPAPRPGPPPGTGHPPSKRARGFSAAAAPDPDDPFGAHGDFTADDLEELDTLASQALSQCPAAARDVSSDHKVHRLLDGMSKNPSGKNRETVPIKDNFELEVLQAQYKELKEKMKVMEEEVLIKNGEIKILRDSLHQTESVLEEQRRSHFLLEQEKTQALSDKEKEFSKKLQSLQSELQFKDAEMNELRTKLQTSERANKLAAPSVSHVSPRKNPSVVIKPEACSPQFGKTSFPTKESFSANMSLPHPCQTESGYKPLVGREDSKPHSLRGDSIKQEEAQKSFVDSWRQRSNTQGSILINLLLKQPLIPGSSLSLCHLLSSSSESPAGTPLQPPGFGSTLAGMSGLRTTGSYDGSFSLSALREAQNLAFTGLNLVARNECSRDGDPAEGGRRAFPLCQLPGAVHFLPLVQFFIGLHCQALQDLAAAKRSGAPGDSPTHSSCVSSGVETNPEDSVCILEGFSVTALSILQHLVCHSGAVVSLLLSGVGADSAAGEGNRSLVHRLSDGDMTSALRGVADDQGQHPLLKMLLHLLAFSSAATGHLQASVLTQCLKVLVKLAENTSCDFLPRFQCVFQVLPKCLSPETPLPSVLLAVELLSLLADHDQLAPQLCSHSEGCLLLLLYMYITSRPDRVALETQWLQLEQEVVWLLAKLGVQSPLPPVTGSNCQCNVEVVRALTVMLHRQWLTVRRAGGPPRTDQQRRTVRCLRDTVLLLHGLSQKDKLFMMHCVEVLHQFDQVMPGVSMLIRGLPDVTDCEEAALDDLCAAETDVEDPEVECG
Chain of full-length ATR (Q13535 whole entry): as the sequence (Q13535 whole entry) above

IC50 (intracellular ATR) [nM] | Ki (full-length ATR; [3]) [nM] | Ki (full-length ATR; read-out: ATR Ki) [nM] | IC50 [2] [nM] | SMILES | Synergy with Cisplatin (uM) [1]
≤ 100 | ≤ 100 | ≤ 10 | 100 to 1000 | CC(O)CNCc1ccc(-c2cc(-c3nc(-c4ccc(S(=O)(=O)C(C)C)cc4)cnc3N)on2)cc1 (stereo not drawn) [IIA-11, 1-(4-(5-(3-amino-6-(4-(isopropylsulfonyl)phenyl)pyrazin-2-yl)isoxazol-3-yl)benzylamino)propan-2-ol] | +++ (Compounds with an IC50 or Ki value of ≤100 nM are marked with “+++.”)
≤ 100 | ≤ 100 | ≤ 10 | 100 to 1000 | CNCc1ccc(-c2nnc(-c3nc(-c4ccc(S(=O)(=O)C(C)C)cc4)cnc3N)o2)cc1 [IA-159, 5-(4-isopropylsulfonylphenyl)-3-[5-[4-(methylaminomethyl)phenyl]-1,3,4-oxadiazol-2-yl]pyrazin-2-amine] | +++ (Compounds with an IC50 or Ki value of ≤100 nM are marked with “+++.”)

SMILES | IC50 (intracellular ATR) [nM] | Ki (full-length ATR; [3]) [nM] | Ki (full-length ATR; read-out: ATR Ki) [nM] | IC50 [2] [nM] | Synergy with Cisplatin (uM) [1]
CS(=O)(=O)c1ccc(-c2cnc(N)c(C(=O)Nc3ccccc3)n2)cc1 [Compound I-82, 3-amino-6-(4-(methylsulfonyl)phenyl)-N-phenylpyrazine-2-carboxamide] | 1000 to 20000 | ≤ 100 | 10 to 100 | 1000 to 20000 | ++ (Compounds with an IC50 or Ki value >100 nM but ≤1 uM are marked with “++.”)
